In patent publication US10765680B2, “Combination of a MCL-1 inhibitor and a taxane compound, uses and pharmaceutical compositions thereof” (priority 2017, dated 2020):

How the values were obtained:
[1] = system: HCC1954 breast cancer cell line; experiment: 72 hours CellTiter-Glo proliferation assay, HCC1954; type: cell-based; conditions: single agent, read-out: Abs IC50
Description: (§1) Compounds were dissolved in 100% DMSO (Sigma, Catalog # D2438-50 ML) at a stock concentration of 10 mM and stored at −20° C. until use. Compounds were arrayed in 2 ml deep 96-well plates (Greiner bio-one, catalog number 780271) serially diluted 3-fold. Compound 1 was used over a concentration range of 0.0-10.0 μM. Paclitaxel was used over a concentration range of 0.0-1.0 μM in breast cancer cells and 0.0-2.0 μM range in lung cancer cells.
(§2) All cell lines were purchased from the American Type Culture Collection and cultured according to vendor recommendations. […] All cell lines were determined to be free of mycoplasma contamination by a PCR detection assay performed at Idexx Radil (Columbia, Mo., USA) and authenticated by SNP analysis. […] Cells were expanded to T-75 flasks and assessed for viability using a Beckman-Coulter ViCell counter prior to plating. […]
(§3) Cell proliferation was measured in 72 hours CellTiter-Glo™ (CTG) assays and all results shown are the result of at least triplicate measurements. […] After 72 hours of compound treatment the effects of compounds on cell proliferation was determined using the CellTiter-Glo™ Luminescent Cell Viability Assay (Promega, Catalog # G7573). This is a homogeneous method to determine the number of viable cells in culture based on quantitation of the ATP present, which signals the presence of metabolically active cells. […]

[2] = system: NCI-H23 lung cancer cell line; experiment: 72 hours CellTiter-Glo proliferation assay, NCI-H23; type: cell-based; conditions: single agent, read-out: Abs IC50
Description: as §1, §2, §3

MDA-MB-231 xenografts = experiment: MDA-MB-231 breast xenograft model, antitumor efficacy; type: in vivo, female nude rats; conditions: Compound 1 50 mg/kg QW×7 iv infusion, liposomal formulation
[3] = system: PDX models resistant to docetaxel; experiment: PDX models resistant to docetaxel, efficacy; type: in vivo, female Swiss Nude mice; conditions: Compound 1 70 mg/kg IV once a week, liposomal formulation
Description: PDX models whose resistance to docetaxel has been confirmed in vivo were tested. Each treatment group included 5 female Swiss Nude mice, aged from 6 to 8 weeks old. The treatment started when xenografts reached a mean tumor volume of ˜120-150 mm^3. Groups of mice were then randomly affected to the different treatments. The number of grafted animals depended on the homogeneity of the tumor growth.
Formulated in a liposomal formulation, Compound 1 was administered intravenously at 70 mg/kg once a week. The formulation had to be prepared extemporaneously. Paclitaxel diluted in 0.9% NaCl was given ip at 25 mg/kg. Paclitaxel was given QW 16 hours before the administration of Compound 1. The administration schedule of the different treatments is defined as follows: […]
Tumor sizes were measured twice a week and weights of individual mice were measured once a week. Treatments were done until the median tumor volume of the most responsive group started to regrow. Mice were followed after the stop of the treatment to compare the time to relapse between the groups. […]

[4] = system: MDA-MB-468 breast cancer cell line; experiment: 72 hours CellTiter-Glo proliferation assay, MDA-MB-468; type: cell-based; conditions: single agent, read-out: Abs IC50
Description: as §1, §2, §3

[5] = system: BT-549 breast cancer cell line; experiment: 72 hours CellTiter-Glo proliferation assay, BT-549; type: cell-based; conditions: single agent, read-out: Abs IC50
Description: as §1, §2, §3

[6] = system: Hs 578T breast cancer cell line; experiment: 72 hours CellTiter-Glo proliferation assay, Hs 578T; type: cell-based; conditions: single agent, read-out: Abs IC50
Description: as §1, §2, §3

[7] = system: Cal-148 breast cancer cell line; experiment: 72 hours CellTiter-Glo proliferation assay, Cal-148; type: cell-based; conditions: single agent, read-out: Abs IC50
Description: as §1, §2, §3

[8] = system: BT-20 breast cancer cell line; experiment: 72 hours CellTiter-Glo proliferation assay, BT-20; type: cell-based; conditions: single agent, read-out: Abs IC50
Description: as §1, §2, §3

[9] = system: HCC1395 breast cancer cell line; experiment: 72 hours CellTiter-Glo proliferation assay, HCC1395; type: cell-based; conditions: single agent, read-out: Abs IC50
Description: as §1, §2, §3

`COc1ccccc1-c1nccc(COc2ccccc2C[C@@H](Oc2ncnc3sc(-c4ccc(F)cc4)c(-c4ccc(OCCN5CCN(C)CC5)c(Cl)c4C)c23)C(=O)O)n1` [Compound 1, (2R)-2-{[(5Sa)-5-{3-chloro-2-methyl-4-[2-(4-methylpiperazin-1-yl)ethoxy]phenyl}-6-(4-fluorophenyl)thieno[2,3-d]pyrimidin-4-yl]oxy}-3-(2-{[2-(2-methoxyphenyl)pyrimidin-4-yl]methoxy}phenyl)propanoic acid] was tested, and the IC50 [1] was 0.159 µM, the IC50 [2] was 0.16 µM and the efficacy (MDA-MB-231 xenografts) was “no efficacy”. For the same molecule, the “inhibition of tumor growth, single agent” value [3] was “insufficient in inhibiting tumor growth”, the IC50 [4] was 9.92 µM and the IC50 [5] was over 10 µM. It also gave an IC50 [6] of 0.519 µM, an IC50 [7] of 1.33 µM and an IC50 [8] of 0.653 µM. It also gave an IC50 [9] of 9.92 µM.
